Measurements: US9695155B2, “Herbicidal substituted pyrimidinyloxy benzene compounds” (E. I. DU PONT DE NEMOURS AND COMPANY, priority 2013, dated 2017)

How the values were obtained:
field bindweed = experiment: Test E preemergence; type: in vivo, Convolvulus arvensis; conditions: for Field Bindweed plant response rating: scale 0 to 100 (0 no effect, 100 complete control); for Plant response rating, Field Bindweed: 125 g ai/ha, scale 0 to 100, 0 no effect, 100 complete control
Method in brief: (§1)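 Response was scored visually on a 0-100 scale (100 = complete control) versus controls after 14 to 21 days in the greenhouse. Test chemicals, formulated with surfactant in a non-phytotoxic solvent mixture, had been applied preemergence to seeds in silt loam soil or postemergence to 1- to 4-leaf plants in potting medium.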

arrowleaf sida = experiment: Test E preemergence; type: in vivo, Sida rhombifolia; conditions: for Arrowleaf Sida plant response rating: scale 0 to 100 (0 no effect, 100 complete control); for Plant response rating, Arrowleaf Sida: scale 0 to 100, 0 no effect, 100 complete control
Text: (§2) Seeds of plant species selected from corn (Zea mays), soybean (Glycine max), velvetleaf (Abutilon theophrasti), lambsquarters (Chenopodium album), wild poinsettia (Euphorbia heterophylla), palmer pigweed (Amaranthus palmeri), waterhemp (common waterhemp, Amaranthus rudis), surinam grass (Brachiaria decumbens), large (Lg) crabgrass (Digitaria sanguinalis), Brazilian crabgrass (Digitaria horizontalis), fall panicum (Panicum dichotomiflorum), giant foxtail (Setaria faberii), green foxtail (Setaria viridis), goosegrass (Eleusine indica), johnsongrass (Sorghum halepense), ragweed (common ragweed, Ambrosia elatior), barnyardgrass (Echinochloa crus-galli), sandbur (southern sandbur, Cenchrus echinatus), arrowleaf sida (Sida rhombifolia), Italian ryegrass (Lolium multiflorum), dayflower (Virginia (VA) dayflower, Commelina virginica), field bindweed (Convolvulus arvensis), morningglory (Ipomoea coccinea), nightshade (eastern black nightshade, Solanum ptycanthum), kochia (Kochia scoparia), yellow nutsedge (Cyperus esculentus), cocklebur (common cocklebur, Xanthium strumarium), smartweed (ladysthumb smartweed, and hairy beggarticks (Bidens pilosa), were planted into a silt loam soil and treated preemergence with test chemicals formulated in a non-phytotoxic solvent mixture which included a surfactant.
(§3) At the same time, plants from these crop and weed species and also horseweed (Canada horseweed, Conyza canadensis), waterhemp_RES1, (ALS & Triazine resistant common waterhemp, Amaranthus rudis), and waterhemp_RES2, (ALS & HPPD resistant common waterhemp, Amaranthus rudis) were planted in pots containing Redi-Earth® planting medium (Scotts Company, 14111 Scottslawn Road, Marysville, Ohio 43041) comprising spaghnum peat moss, vermiculite, wetting agent and starter nutrients were treated with postemergence applications of test chemicals formulated in the same manner. Plants ranged in height from 2 to 18 cm for postemergence treatments (1- to 4-leaf stage). Treated plants and controls were maintained in a greenhouse for 14 to 21 days, after which time all species were compared to controls and visually evaluated. Plant response ratings, summarized in Table E, are based on a scale of 0 to 100 where 0 is no effect and 100 is complete control. A dash (-) response means no test result.

velvetleaf = experiment: Test E preemergence; type: in vivo, Abutilon theophrasti; conditions: for Velvetleaf plant response rating: scale 0 to 100 (0 no effect, 100 complete control); for Plant response rating, Velvetleaf: 125 g ai/ha, scale 0 to 100, 0 no effect, 100 complete control
Text: as §2, §3

Brazilian crabgrass = experiment: Test E preemergence; type: in vivo, Digitaria horizontalis; conditions: for Crabgrass, Brazil plant response rating: scale 0 to 100 (0 no effect, 100 complete control); for Plant response rating, Crabgrass, Brazil: 125 g ai/ha, scale 0 to 100, 0 no effect, 100 complete control
Method in brief: as §1

sandbur = experiment: Test E preemergence; type: in vivo, Cenchrus echinatus; conditions: for Sandbur plant response rating: scale 0 to 100 (0 no effect, 100 complete control); for Plant response rating, Sandbur: 125 g ai/ha, scale 0 to 100, 0 no effect, 100 complete control
Text: as §2, §3

giant foxtail = experiment: Test E preemergence; type: in vivo, Setaria faberii; conditions: for Foxtail, Giant plant response rating: scale 0 to 100 (0 no effect, 100 complete control); for Plant response rating, Foxtail, Giant: 125 g ai/ha, scale 0 to 100, 0 no effect, 100 complete control
Text: as §2, §3

morningglory = experiment: Test E preemergence; type: in vivo, Ipomoea coccinea; conditions: for Morningglory plant response rating: scale 0 to 100 (0 no effect, 100 complete control); for Plant response rating, Morningglory: 125 g ai/ha, scale 0 to 100, 0 no effect, 100 complete control
Text: as §2, §3

yellow nutsedge = experiment: Test E preemergence; type: in vivo, Cyperus esculentus; conditions: for Nutsedge, Yellow plant response rating: scale 0 to 100 (0 no effect, 100 complete control); for Plant response rating, Nutsedge, Yellow: 125 g ai/ha, scale 0 to 100, 0 no effect, 100 complete control
Text: as §2, §3

nightshade = experiment: Test E preemergence; type: in vivo, Solanum ptycanthum; conditions: for Nightshade plant response rating: scale 0 to 100 (0 no effect, 100 complete control); for Plant response rating, Nightshade: 125 g ai/ha, scale 0 to 100, 0 no effect, 100 complete control
Text: as §2, §3

Italian ryegrass [1] = experiment: Test A postemergence; type: in vivo, Lolium multiflorum; conditions: 0 to 100 scale, 0 no effect, 100 complete control
Method in brief: (§4)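 Compounds in non-phytotoxic solvent with surfactant applied as soil spray preemergence, or postemergence to plants 2-10 cm at one- to two-leaf stage, in loam/sand. After approximately 10 days in greenhouse, injury rated visually versus untreated controls, 0 (no effect) to 100 (complete control).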

galium = experiment: Test A postemergence; type: in vivo, Galium aparine; conditions: 0 to 100 scale, 0 no effect, 100 complete control
Method in brief: as §4

Italian ryegrass [2] = experiment: Test A preemergence; type: in vivo, Lolium multiflorum
Method in brief: as §4

kochia = experiment: Test A postemergence; type: in vivo, Kochia scoparia; conditions: 0 to 100 scale, 0 no effect, 100 complete control
Method in brief: as §4

| Compound | Field Bindweed plant response rating (field bindweed; 16 g ai/ha) | Field Bindweed plant response rating (field bindweed; 31 g ai/ha) | Field Bindweed plant response rating (field bindweed; 62 g ai/ha) | Plant response rating, Field Bindweed (field bindweed) | Arrowleaf Sida plant response rating (arrowleaf sida; 16 g ai/ha, preemergence) | Arrowleaf Sida plant response rating (arrowleaf sida; 31 g ai/ha, preemergence) | Plant response rating, Arrowleaf Sida (arrowleaf sida; preemergence, 125 g ai/ha) | Velvetleaf plant response rating (velvetleaf; 31 g ai/ha) | Velvetleaf plant response rating (velvetleaf; 62 g ai/ha) | Plant response rating, Velvetleaf (velvetleaf) | Crabgrass, Brazil plant response rating (Brazilian crabgrass; 16 g ai/ha) | Crabgrass, Brazil plant response rating (Brazilian crabgrass; 31 g ai/ha) | Crabgrass, Brazil plant response rating (Brazilian crabgrass; 62 g ai/ha) | Plant response rating, Crabgrass, Brazil (Brazilian crabgrass) | Sandbur plant response rating (sandbur; 31 g ai/ha) | Sandbur plant response rating (sandbur; 62 g ai/ha) | Plant response rating, Sandbur (sandbur) | Foxtail, Giant plant response rating (giant foxtail; 16 g ai/ha) | Foxtail, Giant plant response rating (giant foxtail; 31 g ai/ha) | Foxtail, Giant plant response rating (giant foxtail; 62 g ai/ha) | also measured |
| --- | --- | --- | --- | --- | --- | --- | --- | --- | --- | --- | --- | --- | --- | --- | --- | --- | --- | --- | --- | --- | --- |
| N#Cc1cnn(-c2c(C#N)cccc2Oc2ncc(F)cn2)c1 [Compound 111] | 15 | 15 | 60 | 80 | 40 | 50 | 98 | 10 | 60 | 75 | 0 | 30 | 75 | 100 | 0 | 0 | 0 | 0 | 0 | 70 | Plant response rating, Arrowleaf Sida (arrowleaf sida; Preemergence, 62 g ai/ha): 70; Velvetleaf plant response rating (velvetleaf; 16 g ai/ha): 5; Sandbur plant response rating (sandbur; 16 g ai/ha): 0; Plant response rating, Foxtail, Giant (giant foxtail): 100; Morningglory plant response rating (morningglory; 16 g ai/ha): 20; Morningglory plant response rating (morningglory; 31 g ai/ha): 35; Morningglory plant response rating (morningglory; 62 g ai/ha): 75; Plant response rating, Morningglory (morningglory): 75; Nutsedge, Yellow plant response rating (yellow nutsedge; 16 g ai/ha): 0; Nutsedge, Yellow plant response rating (yellow nutsedge; 31 g ai/ha): 0; Nutsedge, Yellow plant response rating (yellow nutsedge; 62 g ai/ha): 0; Plant response rating, Nutsedge, Yellow (yellow nutsedge): 15; Nightshade plant response rating (nightshade; 16 g ai/ha): 65; Nightshade plant response rating (nightshade; 31 g ai/ha): 50; Nightshade plant response rating (nightshade; 62 g ai/ha): 80; Plant response rating, Nightshade (nightshade): 95 |
| FCc1cccc(Oc2ncc(Cl)cn2)c1-n1cc(Cl)cn1 [Compound 250] | 0 | 0 | 0 | 0 | 0 | 20 | 100 | 75 | 75 | 100 | 0 | 0 | 5 | 98 | 0 | 0 | 25 | 0 | 0 | 15 | Arrowleaf Sida plant response rating (arrowleaf sida; 62 g ai/ha, preemergence): 60; Plant response rating, Ryegrass, Italian (Italian ryegrass [1]; 31 g ai/ha): 0; Plant response rating, Ryegrass, Italian (Italian ryegrass [1]; 125 g ai/ha): 0; Plant response rating, Foxtail, Giant (giant foxtail): 98; Morningglory plant response rating (morningglory; 31 g ai/ha): 0; Morningglory plant response rating (morningglory; 62 g ai/ha): 0; Plant response rating, Morningglory (morningglory): 20; Plant response rating, Galium (galium; 31 g ai/ha): 10; Plant response rating, Galium (galium; 125 g ai/ha): 60; Nutsedge, Yellow plant response rating (yellow nutsedge; 31 g ai/ha): 0; Nutsedge, Yellow plant response rating (yellow nutsedge; 62 g ai/ha): 0; Plant response rating, Nutsedge, Yellow (yellow nutsedge): 40; Nightshade plant response rating (nightshade; 31 g ai/ha): 0; Nightshade plant response rating (nightshade; 62 g ai/ha): 35; Plant response rating, Nightshade (nightshade): 98; Plant response rating, Ryegrass, Italian (Italian ryegrass [2]; 31 g ai/ha, 0 to 100 scale where 0 is no effect and 100 is complete control, visual, approximately 10 days): 0; Ryegrass, Italian plant response rating (0 to 100 scale) (Italian ryegrass [2]; 125 g ai/ha): 0; Plant response rating, Kochia (kochia; 31 g ai/ha): 60; Plant response rating, Kochia (kochia; 125 g ai/ha): 90 |
